Measured values from ChEMBL document CHEMBL1144347, “Endothelin-converting enzyme-1 inhibition and growth of human glioblastoma cells” (J Med Chem, 2005).

What was measured:
[1] = target: T1, Endothelin-converting enzyme 1 (Homo sapiens, UniProt P42892); experiment: Inhibitory concentration against human ECE-1 by RIA
T1 sequence (P42892 whole entry): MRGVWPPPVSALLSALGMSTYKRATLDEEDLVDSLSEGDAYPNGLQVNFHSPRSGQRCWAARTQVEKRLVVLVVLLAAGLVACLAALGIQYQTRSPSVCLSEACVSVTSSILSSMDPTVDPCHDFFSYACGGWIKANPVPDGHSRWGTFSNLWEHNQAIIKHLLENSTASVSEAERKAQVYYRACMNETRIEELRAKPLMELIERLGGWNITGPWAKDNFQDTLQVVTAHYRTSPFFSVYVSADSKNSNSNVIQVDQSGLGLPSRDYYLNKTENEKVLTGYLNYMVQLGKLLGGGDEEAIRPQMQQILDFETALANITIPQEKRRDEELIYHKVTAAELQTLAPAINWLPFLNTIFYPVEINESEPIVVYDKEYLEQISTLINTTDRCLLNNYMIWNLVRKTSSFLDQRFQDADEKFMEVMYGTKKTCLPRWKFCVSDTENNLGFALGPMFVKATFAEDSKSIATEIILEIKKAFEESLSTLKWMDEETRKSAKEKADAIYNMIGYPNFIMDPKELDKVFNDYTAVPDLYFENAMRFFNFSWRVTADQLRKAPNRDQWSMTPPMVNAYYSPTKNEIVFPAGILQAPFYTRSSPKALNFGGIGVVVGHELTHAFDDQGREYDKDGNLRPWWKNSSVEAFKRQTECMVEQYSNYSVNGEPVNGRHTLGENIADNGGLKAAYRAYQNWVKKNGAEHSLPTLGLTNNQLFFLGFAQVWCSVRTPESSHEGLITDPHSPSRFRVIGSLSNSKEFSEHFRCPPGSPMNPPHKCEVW

Neprilysin = Neprilysin (Homo sapiens, UniProt P08473); experiment: Inhibitory concentration against Neprilysin
[2] = target: Angiotensin-converting enzyme (Homo sapiens, UniProt P12821); experiment: Inhibitory concentration against human angiotensin I converting enzyme
[3] = target: T1, Endothelin-converting enzyme 1; experiment: Inhibitory concentration against human ECE-1 expressed in MDCK cells; assay type: cell-based
cells [4] = conditions: Homo sapiens, Glioblastoma
Description: (§1) Inhibitory concentration against DNA synthesis in LNZ308 glioblastoma cells

cells [5] = conditions: Homo sapiens, Glioblastoma; remark: listed apart in the source
Description: Inhibitory concentration against DNA synthesis in LN18 glioblastoma cells

cells [6] = conditions: Homo sapiens, Glioblastoma; remark: listed apart in the source
Description: Inhibitory concentration againstDNA synthesis in LN18 glioblastoma cells

cells [7] = conditions: Homo sapiens, Glioblastoma; remark: listed apart in the source
Description: as §1

[8] = Inhibitory concentration of the compound was determined against DNA synthesis in LN18 glioblastoma cells; assay type: functional, cell-based; conditions: Homo sapiens

Angiotensin-converting enzyme, sequence (P12821 whole entry): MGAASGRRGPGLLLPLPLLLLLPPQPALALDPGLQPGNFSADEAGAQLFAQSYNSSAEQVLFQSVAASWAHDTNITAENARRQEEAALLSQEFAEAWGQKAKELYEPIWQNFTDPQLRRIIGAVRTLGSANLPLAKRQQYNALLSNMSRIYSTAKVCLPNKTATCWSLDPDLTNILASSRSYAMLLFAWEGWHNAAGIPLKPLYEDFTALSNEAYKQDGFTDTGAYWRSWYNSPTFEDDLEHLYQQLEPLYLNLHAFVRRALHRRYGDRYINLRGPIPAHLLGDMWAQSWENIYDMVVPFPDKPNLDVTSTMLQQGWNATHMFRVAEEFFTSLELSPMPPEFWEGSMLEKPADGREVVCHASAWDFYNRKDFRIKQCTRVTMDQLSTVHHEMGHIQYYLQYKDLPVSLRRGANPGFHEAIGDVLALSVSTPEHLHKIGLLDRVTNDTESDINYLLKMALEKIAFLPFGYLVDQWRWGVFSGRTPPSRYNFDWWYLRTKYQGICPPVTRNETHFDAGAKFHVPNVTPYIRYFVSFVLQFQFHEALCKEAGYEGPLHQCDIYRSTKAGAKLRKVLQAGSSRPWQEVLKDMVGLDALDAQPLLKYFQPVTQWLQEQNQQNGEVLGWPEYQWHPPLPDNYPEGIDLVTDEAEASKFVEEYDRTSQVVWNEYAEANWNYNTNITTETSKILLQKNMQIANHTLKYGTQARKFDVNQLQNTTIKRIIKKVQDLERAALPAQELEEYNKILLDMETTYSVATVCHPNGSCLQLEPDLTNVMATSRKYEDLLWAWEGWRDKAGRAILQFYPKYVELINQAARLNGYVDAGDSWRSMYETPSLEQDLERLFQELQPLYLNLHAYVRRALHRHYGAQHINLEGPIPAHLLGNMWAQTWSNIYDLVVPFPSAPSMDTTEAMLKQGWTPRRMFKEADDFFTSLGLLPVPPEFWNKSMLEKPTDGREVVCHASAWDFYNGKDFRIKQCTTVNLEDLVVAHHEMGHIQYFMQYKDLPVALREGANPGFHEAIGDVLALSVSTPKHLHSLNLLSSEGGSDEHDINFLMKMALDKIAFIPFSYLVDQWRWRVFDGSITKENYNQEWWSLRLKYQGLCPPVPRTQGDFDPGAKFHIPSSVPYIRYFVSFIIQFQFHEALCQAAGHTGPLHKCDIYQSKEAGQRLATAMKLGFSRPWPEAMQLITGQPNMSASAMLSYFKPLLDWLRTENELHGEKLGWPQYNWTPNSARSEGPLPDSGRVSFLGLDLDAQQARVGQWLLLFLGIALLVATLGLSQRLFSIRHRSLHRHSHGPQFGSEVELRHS
Neprilysin, sequence (P08473 whole entry): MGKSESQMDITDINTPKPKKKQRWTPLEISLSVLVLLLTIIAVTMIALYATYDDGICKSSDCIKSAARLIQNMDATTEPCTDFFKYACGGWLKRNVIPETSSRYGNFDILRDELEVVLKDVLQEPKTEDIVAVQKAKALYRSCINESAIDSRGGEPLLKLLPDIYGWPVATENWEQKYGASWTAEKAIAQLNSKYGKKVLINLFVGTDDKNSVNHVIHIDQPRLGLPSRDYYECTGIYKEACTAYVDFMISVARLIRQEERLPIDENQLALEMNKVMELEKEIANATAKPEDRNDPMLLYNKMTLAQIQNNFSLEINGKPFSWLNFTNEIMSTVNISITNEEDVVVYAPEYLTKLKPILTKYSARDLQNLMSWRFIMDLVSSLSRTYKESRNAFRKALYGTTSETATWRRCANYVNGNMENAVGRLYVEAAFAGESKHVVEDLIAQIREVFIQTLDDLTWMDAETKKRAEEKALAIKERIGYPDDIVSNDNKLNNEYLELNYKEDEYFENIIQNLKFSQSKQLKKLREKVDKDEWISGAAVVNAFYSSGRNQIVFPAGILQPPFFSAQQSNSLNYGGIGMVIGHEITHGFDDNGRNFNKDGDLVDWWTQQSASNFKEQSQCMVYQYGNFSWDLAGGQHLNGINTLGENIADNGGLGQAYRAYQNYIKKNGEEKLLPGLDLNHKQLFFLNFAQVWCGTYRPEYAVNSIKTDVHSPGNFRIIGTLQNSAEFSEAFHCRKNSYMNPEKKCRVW

IC50 [1] [µM] | IC50 (Neprilysin) [µM] | IC50 [2] [µM] | IC50 [3] [µM] | IC50 (cells [4]) [µM] | IC50 (cells [5]) [µM] | IC50 (cells [6]) [µM] | IC50 (cells [7]) [µM] | IC50 [8] [µM] | SMILES
0.0808 | 81.9 | 36.6 | 10.9 | 16 | 12 | – | – | – | COC(=O)c1ccccc1NC(=O)CN(C)C(=O)C1C[C@@H](S)CN1S(=O)(=O)c1ccc2ccccc2c1 (some centres undefined)
0.0069 | > 100 | > 100 | 0.0765 | – | – | 14 | 16 | – | CC(=O)S[C@@H]1C[C@@H](COCc2cc(F)c(F)cc2F)N(C(=O)Oc2cccc3c2OCCO3)C1
0.016 | > 100 | > 100 | 1.09 | 50 | 27 | – | – | – | CC(C)OC(=O)N1C[C@H](S)C[C@H]1CNCc1cc(F)ccc1F
0.0497 | > 100 | > 100 | 0.48 | 20 | 18 | – | – | – | O=C(S[C@@H]1C[C@@H](COCc2cc(F)c(F)cc2F)N(C(=O)Oc2cccc3c2OCCO3)C1)c1ccccc1
0.0104 | > 100 | 31.5 | 0.0729 | – | – | – | 40 | 19 | CCCc1cnc(N2C[C@H](S)C[C@H]2CNCc2cc(F)ccc2F)nc1
0.0012 | > 100 | 13.4 | 0.067 | – | – | – | – | – | COC(=O)c1ccccc1OC(=O)N1CC(S)CC1COCc1cc(F)c(F)cc1F (centres undefined)
0.0613 | 39.2 | 14.6 | 2.53 | – | – | – | – | – | Cc1ccc(S(=O)(=O)NN(C)C(=O)C2C[C@@H](S)CN2S(=O)(=O)c2ccc3ccccc3c2)cc1 (some centres undefined)

SMILES | IC50 [1] [µM] | IC50 (Neprilysin) [µM] | IC50 [2] [µM] | IC50 [3] [µM] | IC50 (cells [4]) [µM] | IC50 (cells [5]) [µM] | IC50 (cells [6]) [µM] | IC50 (cells [7]) [µM] | IC50 [8] [µM]
O=P(O)(O)C(Cc1ccc2ccccc2c1)N[C@@H](Cc1ccc(-c2ccccc2)cc1)c1nnn[nH]1 (some centres undefined) [CGS-314447] | 0.02 | – | – | – | – | – | – | – | –
